Assay results taken from patent US20210070748A1, “INHIBITORS OF BRUTONS TYROSINE KINASE” (Pharmacyclics LLC, priority 2015, published 2021).

Legend:
JAK3 = target: T1, JAK3 (Homo sapiens, UniProt P52333); assay: Inhibition of a panel of kinases, in vitro HotSpot kinase assay: JAK3; assay type: biochemical; conditions: for IC50: Table 13, A compounds, 1 μM ATP, read-out: IC50 JAK3; for JAK3* IC50 relative to Btk IC50 value: fold relative to Btk IC50 value
T1 sequence (P52333 1-1124): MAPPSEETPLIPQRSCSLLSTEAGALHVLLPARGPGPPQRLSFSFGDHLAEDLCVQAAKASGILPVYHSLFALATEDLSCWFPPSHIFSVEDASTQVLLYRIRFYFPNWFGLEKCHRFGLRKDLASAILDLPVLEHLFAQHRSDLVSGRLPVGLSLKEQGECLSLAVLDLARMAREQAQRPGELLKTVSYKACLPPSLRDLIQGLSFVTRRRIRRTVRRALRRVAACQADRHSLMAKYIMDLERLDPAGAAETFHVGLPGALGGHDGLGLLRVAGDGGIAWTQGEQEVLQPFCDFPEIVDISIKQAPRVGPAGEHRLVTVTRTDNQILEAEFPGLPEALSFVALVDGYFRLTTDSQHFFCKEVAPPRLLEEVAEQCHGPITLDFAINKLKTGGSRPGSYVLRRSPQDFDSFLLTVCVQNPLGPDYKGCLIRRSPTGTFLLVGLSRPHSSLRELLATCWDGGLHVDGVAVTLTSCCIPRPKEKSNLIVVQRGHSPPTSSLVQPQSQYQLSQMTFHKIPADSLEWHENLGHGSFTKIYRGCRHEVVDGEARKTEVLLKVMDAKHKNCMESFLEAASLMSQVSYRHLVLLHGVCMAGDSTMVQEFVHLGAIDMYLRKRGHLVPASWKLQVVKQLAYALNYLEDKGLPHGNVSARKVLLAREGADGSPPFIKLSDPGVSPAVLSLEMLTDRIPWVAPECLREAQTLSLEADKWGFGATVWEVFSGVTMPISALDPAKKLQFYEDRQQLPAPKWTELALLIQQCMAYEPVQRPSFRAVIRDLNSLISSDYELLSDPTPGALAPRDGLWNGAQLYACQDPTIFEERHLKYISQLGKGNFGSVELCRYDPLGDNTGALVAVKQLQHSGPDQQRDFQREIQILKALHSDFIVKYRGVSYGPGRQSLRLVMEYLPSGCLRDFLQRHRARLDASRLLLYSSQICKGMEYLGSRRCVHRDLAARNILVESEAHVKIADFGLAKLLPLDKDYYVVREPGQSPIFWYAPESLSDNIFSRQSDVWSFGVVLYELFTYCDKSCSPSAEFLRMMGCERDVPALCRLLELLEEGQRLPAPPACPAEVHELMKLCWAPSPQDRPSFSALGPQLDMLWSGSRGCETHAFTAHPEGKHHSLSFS

ITK = target: T2, ITK (Homo sapiens, UniProt Q08881); assay: Inhibition of a panel of kinases, in vitro HotSpot kinase assay: ITK; assay type: biochemical; conditions: for IC50: Table 13, A compounds, 1 μM ATP; for ITK* IC50 relative to Btk IC50 value: fold relative to Btk IC50 value
T2 sequence (Q08881 1-620): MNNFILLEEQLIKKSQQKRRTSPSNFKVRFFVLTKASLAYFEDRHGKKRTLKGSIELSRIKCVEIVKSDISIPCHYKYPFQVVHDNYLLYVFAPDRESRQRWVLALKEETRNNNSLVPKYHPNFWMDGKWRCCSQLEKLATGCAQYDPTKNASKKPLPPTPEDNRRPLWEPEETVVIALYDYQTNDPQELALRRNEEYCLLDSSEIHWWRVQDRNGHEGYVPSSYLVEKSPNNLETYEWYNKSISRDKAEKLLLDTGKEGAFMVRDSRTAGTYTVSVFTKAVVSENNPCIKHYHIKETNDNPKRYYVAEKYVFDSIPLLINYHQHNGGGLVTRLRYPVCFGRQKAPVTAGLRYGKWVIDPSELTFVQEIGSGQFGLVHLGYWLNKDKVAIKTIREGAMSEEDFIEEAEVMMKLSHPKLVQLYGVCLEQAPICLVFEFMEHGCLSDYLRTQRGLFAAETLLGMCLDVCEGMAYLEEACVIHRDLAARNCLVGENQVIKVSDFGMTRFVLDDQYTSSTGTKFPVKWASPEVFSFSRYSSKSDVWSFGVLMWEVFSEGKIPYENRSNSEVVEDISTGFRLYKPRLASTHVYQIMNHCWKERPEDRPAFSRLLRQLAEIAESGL
Experimental: The degree of inhibition of a panel of kinases is determined using the in vitro HotSpot kinase assay (purified enzymes, ^33P-ATP, an appropriate substrate and 1 μM ATP).

SMILES	IC50 (JAK3) [µM]	IC50 (ITK) [µM]	JAK3* IC50 relative to Btk IC50 value (JAK3) [x]	ITK* IC50 relative to Btk IC50 value (ITK) [x]
Cc1c(Nc2nc(N3CCC[C@@H](NC(=O)c4ccc(C5CC5)cc4)[C@H]3C)cnc2C(N)=O)cnn1C [Example A-191, 5-((2R,3)R-3-(4-cyclopropylbenzamido)-2-methylpiperidin-1-yl)-3-(1,5-dimethyl-1H-pyrazol-4-ylamino)pyrazine-2-carboxamide]	> 10	> 10	–	–
Cn1cc(Nc2nc(N3CCC[C@@H](NC(=O)c4ccc(C5CC5)cc4)C3)nnc2C(N)=O)cn1 [Example A-202, 3-[(3R)-3-(4-cyclopropylbenzamido)piper-idin-1-yl]-5-[(1-methyl-1H-pyrazol-4-yl)amino]-1,2,4-triazine-6-carboxamide]	–	–	631	360
C[C@@H]1[C@H](NC(=O)c2ccc(C3CC3)cc2)CCCN1c1nnc(C(N)=O)c(Nc2cnn(C)c2)n1 [Example A-201, 3-[(2R,3R)-3-(4-cyclopropylbenzamido)-2-methylpiperidin-1-yl]-5-[(1-methyl-1H-pyrazol-4-yl)amino]-1,2,4-triazine-6-carboxamide]	–	–	1102	234
CN1CCN(c2ccc(Nc3nc(N4CCC[C@@H](n5ccc6cc(C7CC7)ccc6c5=O)C4)cnc3C(N)=O)cc2)CC1 [Example A-99, 5-[(3R)-3-(6-cyclo-propyl-1-oxo-1,2-dihydroisoquinolin-2-yl)piperidin-1-yl]-3-{[4-(4-methylpiperazin-1-yl)phenyl]amino}pyrazine-2-carboxamide]	1 to 10	0.1 to 1	–	–
C[C@@H]1[C@H](NC(=O)c2cc3c(n2C)CC(C)(C)C3)CCCN1c1cnc(C(N)=O)c(Nc2cnn(C)c2)n1 [Example A-193, N-((2R,3R)-1-(5-carbamoyl-6-(1-methyl-1H-pyrazol-4-ylamino)pyrazin-2-yl)-2-methylpiperidin-3-yl)-1,5,5-trimethyl-1,4,5,6-tetrahydrocyclo-penta[b]pyrrole-2-carboxamide]	0.1 to 1	0.1 to 1	–	–
C[C@@H]1[C@H](NC(=O)N(C)C)CCCN1c1cnc(C(N)=O)c(Nc2ccc(N3CCN(C)CC3)cc2)n1 [Example A-100, 5-[(2R,3R)-3-[(dimethylcarbamoyl)amino]-2-methylpiperidin-1-yl]-3-{[4-(4-methylpiperazin-1-yl)phenyl]amino}pyrazine-2-carboxamide]	0.1 to 1	0.1 to 1	–	–
C[C@@H]1[C@H](NC(=O)c2ccc(C(C)(C)O)cc2)CCCN1c1cnc(C(N)=O)c(Nc2cnn(C)c2)n1 [Example A-200, 5-((2R,3R)-3-(4-(2-hydroxypropan-2-yl)benzamido)-2-methyl-piperidin-1-yl)-3-(1-methyl-1H-pyrazol-4-yl-amino)pyrazine-2-carboxamide]	–	–	411	99
C[C@@H]1[C@H](NC(=O)c2ccc(C(C)(C)C)cc2)CCCN1c1cnc(C(N)=O)c(Nc2cnn(C)c2)n1 [Example A-203, 5-((2R,3R)-3-(4-tert-butylbenzamido)-2-methylpiperidin-1-yl)-3-(1-methyl-1H-pyrazol-4-ylamino)pyrazine-2-carboxamide]	–	–	7353	787
C[C@@H]1[C@H](NC(=O)c2ccc(C3COC3)cc2)CCCN1c1cnc(C(N)=O)c(Nc2cnn(C)c2)n1 [Example A-206, 3-(1-methyl-1H-pyrazol-4-ylamino)-5-((2R,3R)-2-methyl-3-(4-(oxetan-3-yl)benzamido)piperidin-1-yl)pyrazine-2-carboxamide]	–	–	341	157
